Reference: PMC9501810, “Bitter Peptides YFYPEL, [sequence], and [sequence], Released during Gastric Digestion of Casein, Stimulate Mechanisms of Gastric Acid Secretion via Bitter Taste Receptors TAS2R16 and TAS2R38” (Journal of Agricultural and Food Chemistry, 2022)
Where “and” joins values, the source holds several entries; their conditions need not be identical. Equal values may be shown once.

Experiments:
Type in all cases: cell-based, human
TAS2R1 = assay: RT-qPCR gene expression of TAS2R1 in HGT-1 cells; conditions: VAPFPEVF 17.5 µM, YFYPEL 0.03 µM, YQEPVLGPVRGPFPIIV 0.4 µM, normalized to PPIA and GAPDH and untreated cells, mean, n = 3–5
Experimental: (§1) For mRNA expression analysis, 800,000 cells were seeded in a T25 cell culture flask (25 cm^2) 1 day before the experiment. After incubation with 17.5 μM […], 0.03 μM YFYPEL, or 0.4 μM […] for 15, 30, 60, and 120 min, RNA was isolated using the peqGOLD RNA Kit (VWR Peqlab, USA) following the manufacturer’s protocol. Determination of RNA concentration (A260/A280 between 2.03 and 2.09) was performed on a NanoDrop One^c (Thermo Fisher Scientific Inc., USA). RNA integrity number (RIN 9.9–10.0, version 2.6, assay class Eukaryote Total RNA Nano) was analyzed using a 2100 Bioanalyzer (Agilent Technologies, USA). Removal of gDNA and synthesis of cDNA were performed using the iScript gDNA Clear cDNA Synthesis Kit (BioRad, Feldkirchen, Germany) following the manufacturer’s protocol. Real-time-qPCR (RT-qPCR) was performed with 50 ng cDNA amplified with SsoAdvanced Universal SYBR Green Supermix (Bio-Rad Laboratories, Inc., USA). The sequences of the forward and reverse primers of the 25 TAS2Rs were taken from Liszt et al.([13]) (Supporting Information Table-SI 3). Verified primers for the TAS1Rs (TAS1R1: qHsaCID0013443; TAS1R2: qHsaCID0016106; TAS1R3: qHsaCED0002321) and for MAPK1 (qHsaCEP0050000) were obtained from Bio-Rad Laboratories. PPIA[37] and GAPDH[38] were used as reference genes. The effects of the peptides on gene expression were analyzed in comparison to untreated control cells.

TAS2R9 = assay: RT-qPCR gene expression of TAS2R9 in HGT-1 cells; conditions: VAPFPEVF 17.5 µM, YFYPEL 0.03 µM, YQEPVLGPVRGPFPIIV 0.4 µM, normalized to PPIA and GAPDH and untreated cells, mean, n = 3–5
Experimental: as §1

TAS2R19 = assay: RT-qPCR gene expression of TAS2R19 in HGT-1 cells; conditions: VAPFPEVF 17.5 µM, YFYPEL 0.03 µM, YQEPVLGPVRGPFPIIV 0.4 µM, normalized to PPIA and GAPDH and untreated cells, mean, n = 3–5
Experimental: as §1

TAS2R4 = assay: RT-qPCR gene expression of TAS2R4 in HGT-1 cells; conditions: VAPFPEVF 17.5 µM, YFYPEL 0.03 µM, YQEPVLGPVRGPFPIIV 0.4 µM, normalized to PPIA and GAPDH and untreated cells, mean, n = 3–5
Experimental: as §1

TAS1R1 = assay: RT-qPCR gene expression of TAS1R1 in HGT-1 cells; conditions: 15/30/60/120 min, VAPFPEVF 17.5 µM, YQEPVLGPVRGPFPIIV 0.4 µM, n = 3
Experimental: as §1

TAS2R13 = assay: RT-qPCR gene expression of TAS2R13 in HGT-1 cells; conditions: VAPFPEVF 17.5 µM, YFYPEL 0.03 µM, YQEPVLGPVRGPFPIIV 0.4 µM, normalized to PPIA and GAPDH and untreated cells, mean, n = 3–5
Experimental: as §1

TAS2R60 = assay: RT-qPCR gene expression of TAS2R60 in HGT-1 cells; conditions: incubation 15/30/60/120 min, VAPFPEVF 17.5 µM, YFYPEL 0.03 µM, YQEPVLGPVRGPFPIIV 0.4 µM, expression not detectable with or without treatment
Experimental: as §1

TAS2R14 = assay: RT-qPCR gene expression of TAS2R14 in HGT-1 cells; conditions: VAPFPEVF 17.5 µM, YFYPEL 0.03 µM, YQEPVLGPVRGPFPIIV 0.4 µM, normalized to PPIA and GAPDH and untreated cells, mean, n = 3–5
Experimental: as §1

TAS2R38 = assay: RT-qPCR gene expression of TAS2R38 in HGT-1 cells; conditions: VAPFPEVF 17.5 µM, YFYPEL 0.03 µM, YQEPVLGPVRGPFPIIV 0.4 µM, normalized to PPIA and GAPDH and untreated cells, mean, n = 3–5
Experimental: as §1, with “cells. […]” for “cells.”

TAS2R46 = assay: RT-qPCR gene expression of TAS2R46 in HGT-1 cells; conditions: VAPFPEVF 17.5 µM, YFYPEL 0.03 µM, YQEPVLGPVRGPFPIIV 0.4 µM, normalized to PPIA and GAPDH and untreated cells, mean, n = 3–5
Experimental: as §1

TAS2R10 = assay: RT-qPCR gene expression of TAS2R10 in HGT-1 cells; conditions: VAPFPEVF 17.5 µM, YFYPEL 0.03 µM, YQEPVLGPVRGPFPIIV 0.4 µM, normalized to PPIA and GAPDH and untreated cells, mean, n = 3–5
Experimental: as §1

TAS2R42 = assay: RT-qPCR gene expression of TAS2R42 in HGT-1 cells; conditions: VAPFPEVF 17.5 µM, YFYPEL 0.03 µM, YQEPVLGPVRGPFPIIV 0.4 µM, normalized to PPIA and GAPDH and untreated cells, mean, n = 3–5
Experimental: as §1

TAS2R5 = assay: RT-qPCR gene expression of TAS2R5 in HGT-1 cells; conditions: VAPFPEVF 17.5 µM, YFYPEL 0.03 µM, YQEPVLGPVRGPFPIIV 0.4 µM, normalized to PPIA and GAPDH and untreated cells, mean, n = 3–5
Experimental: as §1

TAS2R31 = assay: RT-qPCR gene expression of TAS2R31 in HGT-1 cells; conditions: VAPFPEVF 17.5 µM, YFYPEL 0.03 µM, YQEPVLGPVRGPFPIIV 0.4 µM, normalized to PPIA and GAPDH and untreated cells, mean, n = 3–5
Experimental: as §1

TAS2R30 = assay: RT-qPCR gene expression of TAS2R30 in HGT-1 cells; conditions: VAPFPEVF 17.5 µM, YFYPEL 0.03 µM, YQEPVLGPVRGPFPIIV 0.4 µM, normalized to PPIA and GAPDH and untreated cells, mean, n = 3–5
Experimental: as §1

YQEPVLGPVRGPFPIIV [bitter casein peptide βA1/A2-CN193–209]
change in gene expression of TAS2R1 (TAS2R1; incubation 15 min): 0.33 fold change | change in gene expression of TAS2R1 (TAS2R1; incubation 30 min): 0.43 fold change | change in gene expression of TAS2R1 (TAS2R1; incubation 60 min): 1.00 fold change | change in gene expression of TAS2R1 (TAS2R1; incubation 120 min): 0.84 fold change | change in gene expression of TAS2R9 (TAS2R9; incubation 15 min): 0.43 fold change | change in gene expression of TAS2R9 (TAS2R9; incubation 30 min): 0.44 fold change | change in gene expression of TAS2R9 (TAS2R9; incubation 60 min): 1.91 fold change | change in gene expression of TAS2R9 (TAS2R9; incubation 120 min): 0.73 fold change | change in gene expression of TAS2R19 (TAS2R19; incubation 15 min): 0.85 fold change | change in gene expression of TAS2R19 (TAS2R19; incubation 30 min): 1.58 fold change | change in gene expression of TAS2R19 (TAS2R19; incubation 60 min): 1.27 fold change | change in gene expression of TAS2R19 (TAS2R19; incubation 120 min): 1.05 fold change | change in gene expression of TAS2R4 (TAS2R4; incubation 15 min): 0.79 fold change | change in gene expression of TAS2R4 (TAS2R4; incubation 30 min): 1.71 fold change | change in gene expression of TAS2R4 (TAS2R4; incubation 60 min): 1.60 fold change | change in gene expression of TAS2R4 (TAS2R4; incubation 120 min): 1.21 fold change | change in expression of TAS1R1 (TAS1R1): no significant effect | change in gene expression of TAS2R13 (TAS2R13; incubation 15 min): 0.70 fold change | change in gene expression of TAS2R13 (TAS2R13; incubation 30 min): 1.65 fold change | change in gene expression of TAS2R13 (TAS2R13; incubation 60 min): 1.16 fold change | change in gene expression of TAS2R13 (TAS2R13; incubation 120 min): 1.31 fold change | change in gene expression of TAS2R60 (TAS2R60): not detected | change in gene expression of TAS2R14 (TAS2R14; incubation 15 min): 0.85 fold change | change in gene expression of TAS2R14 (TAS2R14; incubation 30 min): 1.08 fold change | change in gene expression of TAS2R14 (TAS2R14; incubation 60 min): 1.03 fold change | change in gene expression of TAS2R14 (TAS2R14; incubation 120 min): 1.08 fold change | change in gene expression of TAS2R38 (TAS2R38; incubation 15 min): 2.01 fold change | change in gene expression of TAS2R38 (TAS2R38; incubation 30 min): 3.71 fold change | change in gene expression of TAS2R38 (TAS2R38; incubation 60 min): 2.05 fold change | change in gene expression of TAS2R38 (TAS2R38; incubation 120 min): 2.38 fold change | change in gene expression of TAS2R46 (TAS2R46; incubation 15 min): 0.69 fold change | change in gene expression of TAS2R46 (TAS2R46; incubation 30 min): 1.73 fold change | change in gene expression of TAS2R46 (TAS2R46; incubation 60 min): 1.30 fold change | change in gene expression of TAS2R46 (TAS2R46; incubation 120 min): 1.06 fold change | change in gene expression of TAS2R10 (TAS2R10; incubation 15 min): 0.52 fold change and 0.52 ± 0.06 fold change | change in gene expression of TAS2R10 (TAS2R10; incubation 30 min): 0.78 fold change | change in gene expression of TAS2R10 (TAS2R10; incubation 60 min): 0.90 fold change | change in gene expression of TAS2R10 (TAS2R10; incubation 120 min): 1.04 fold change | change in gene expression of TAS2R42 (TAS2R42; incubation 15 min): 0.62 fold change | change in gene expression of TAS2R42 (TAS2R42; incubation 30 min): 1.38 fold change | change in gene expression of TAS2R42 (TAS2R42; incubation 60 min): 1.18 fold change | change in gene expression of TAS2R42 (TAS2R42; incubation 120 min): 0.94 fold change | change in gene expression of TAS2R5 (TAS2R5; incubation 15 min): 1.25 fold change | change in gene expression of TAS2R5 (TAS2R5; incubation 30 min): 1.45 fold change | change in gene expression of TAS2R5 (TAS2R5; incubation 60 min): 1.39 fold change | change in gene expression of TAS2R5 (TAS2R5; incubation 120 min): 1.22 fold change | change in gene expression of TAS2R31 (TAS2R31; incubation 15 min): 0.86 fold change | change in gene expression of TAS2R31 (TAS2R31; incubation 30 min): 1.43 fold change | change in gene expression of TAS2R31 (TAS2R31; incubation 60 min): 1.33 fold change | change in gene expression of TAS2R31 (TAS2R31; incubation 120 min): 0.99 fold change | change in gene expression of TAS2R30 (TAS2R30; incubation 15 min): 0.74 fold change | change in gene expression of TAS2R30 (TAS2R30; incubation 30 min): 1.88 fold change | change in gene expression of TAS2R30 (TAS2R30; incubation 60 min): 1.20 fold change | change in gene expression of TAS2R30 (TAS2R30; incubation 120 min): 0.89 fold change
